ChEMBL document CHEMBL5252622, “Discovery of a brain-sparing GIRK1/4 inhibitor for pharmacological cardioversion of atrial fibrillation” (Bioorg Med Chem Lett, 2023)
pIC50: −log10 of the molar value. Values after ≈ are worked out from the molar mass of the structure shown. Active and inactive are the calls of the source. The calls are words filed in the database; no cut-off is given here.

Legend:
[1] = Aqueous solubility of the compound at pH 6.8; assay type: physicochemical
[2] = molecular target: T1, Kir3.1/Kir3.4 (Homo sapiens, UniProt P48544+P48549); test: Inhibition of recombinant human GIRK1/4 channel; assay type: protein-complex assay
T1 sequence (P48549 whole entry): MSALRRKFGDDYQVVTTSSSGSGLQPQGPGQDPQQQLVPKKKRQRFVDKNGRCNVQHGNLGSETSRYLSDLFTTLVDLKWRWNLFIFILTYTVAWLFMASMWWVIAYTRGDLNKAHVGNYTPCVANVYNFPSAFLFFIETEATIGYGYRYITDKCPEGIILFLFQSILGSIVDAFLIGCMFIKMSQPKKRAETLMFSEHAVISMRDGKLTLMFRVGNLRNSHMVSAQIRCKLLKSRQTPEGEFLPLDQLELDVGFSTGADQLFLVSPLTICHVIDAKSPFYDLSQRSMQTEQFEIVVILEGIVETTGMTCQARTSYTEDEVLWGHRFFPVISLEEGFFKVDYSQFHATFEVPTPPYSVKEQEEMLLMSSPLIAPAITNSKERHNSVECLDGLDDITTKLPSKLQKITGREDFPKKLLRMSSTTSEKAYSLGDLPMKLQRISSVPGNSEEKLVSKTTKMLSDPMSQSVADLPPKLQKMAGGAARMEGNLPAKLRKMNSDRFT
T1 sequence (P48544 whole entry): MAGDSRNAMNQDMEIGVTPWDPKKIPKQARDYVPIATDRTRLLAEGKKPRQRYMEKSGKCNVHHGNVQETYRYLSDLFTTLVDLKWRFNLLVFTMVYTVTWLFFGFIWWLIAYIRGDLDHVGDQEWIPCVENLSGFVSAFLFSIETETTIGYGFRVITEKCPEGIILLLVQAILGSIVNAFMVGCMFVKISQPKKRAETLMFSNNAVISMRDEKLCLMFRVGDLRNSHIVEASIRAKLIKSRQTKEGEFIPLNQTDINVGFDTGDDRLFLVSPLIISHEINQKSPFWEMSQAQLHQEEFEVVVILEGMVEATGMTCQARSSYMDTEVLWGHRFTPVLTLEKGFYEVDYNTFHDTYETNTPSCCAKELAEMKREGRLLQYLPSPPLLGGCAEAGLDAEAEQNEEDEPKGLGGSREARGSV

[3] = system: MDCK; test: Substrate activity at p-glycoprotein in MDCK cells overexpressing MDR1 assessed as efflux ratio of permeability from basolateral to apical side over apical to basolateral side; assay type: cell-based; details: Canis lupus familiaris
[4] = Apparent permeability across apical to basolateral side in MDCK cells; assay type: ADME, cell-based, Canis lupus familiaris; details: dog
[5] = Toxicity in langendorff-perfused guinea pig heart assessed as effect on coronary artery perfusion pressure at 10 uM; assay type: tissue-based, Cavia porcellus
[6] = Toxicity in rat assessed as NOAEL administered as repeated dose for 6 days; details: in vivo, time 6 day
[7] = Toxicity in langendorff-perfused guinea pig heart assessed as effect on QT interval at 10 uM; assay type: tissue-based, Cavia porcellus
[8] = Toxicity in langendorff-perfused guinea pig heart assessed as effect on left atrial action potential duration at 10 uM; assay type: tissue-based, Cavia porcellus
[9] = Terminal half-life in iv dosed rat; assay type: ADME, organism-based; details: in vivo, read-out: beta t1/2 (converted)
[10] = Brain to plasma ratio in iv dosed rat measured after 30 mins; assay type: ADME, organism-based; details: read-out: BPR
[11] = Cmax in rat administered as repeated dose for 6 days; assay type: ADME; set-up: time 6 day; details: in vivo
[12] = Clearance in iv dosed rat; assay type: ADME, organism-based; details: in vivo
[13] = organism: Cavia porcellus; test: Effect on fingolimod-induced shortening of AERP in guinea pig model assessed as restoration of shortened AERP measured at 30 to 60 mins; assay type: functional; details: time 30-60 min
[14] = system: Cavia porcellus; test: Effect on fingolimod-induced shortening of AERP in guinea pig model assessed as prolongation of shortened AERP at 3 mg/kg, iv measured at 20 to 30 mins; assay type: functional, organism-based; details: time 20-30 min
[15] = molecular target: T2, Potassium voltage-gated channel subfamily KQT member 1 (Homo sapiens, UniProt P51787); test: Inhibition of recombinant human KCNQ1; assay type: toxicity
T2 sequence (P51787 whole entry): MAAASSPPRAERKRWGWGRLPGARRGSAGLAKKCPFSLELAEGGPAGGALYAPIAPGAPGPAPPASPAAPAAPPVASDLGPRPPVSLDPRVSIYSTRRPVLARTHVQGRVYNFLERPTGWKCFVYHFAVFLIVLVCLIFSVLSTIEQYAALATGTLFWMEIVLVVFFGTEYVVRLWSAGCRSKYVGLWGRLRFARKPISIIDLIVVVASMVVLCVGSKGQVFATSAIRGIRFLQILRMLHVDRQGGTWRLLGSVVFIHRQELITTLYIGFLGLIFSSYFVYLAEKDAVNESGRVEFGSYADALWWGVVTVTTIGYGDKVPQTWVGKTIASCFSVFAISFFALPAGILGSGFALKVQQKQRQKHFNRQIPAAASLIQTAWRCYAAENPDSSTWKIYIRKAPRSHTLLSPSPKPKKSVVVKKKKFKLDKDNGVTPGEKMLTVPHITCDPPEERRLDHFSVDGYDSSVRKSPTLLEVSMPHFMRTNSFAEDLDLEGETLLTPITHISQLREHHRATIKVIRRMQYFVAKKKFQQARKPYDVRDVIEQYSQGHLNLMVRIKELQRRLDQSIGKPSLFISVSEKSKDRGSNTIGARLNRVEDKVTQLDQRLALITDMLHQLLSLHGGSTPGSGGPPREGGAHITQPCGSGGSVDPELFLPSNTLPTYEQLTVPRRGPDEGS

[16] = molecular target: Voltage-dependent L-type calcium channel subunit alpha-1C (Homo sapiens, UniProt Q13936); test: Inhibition of recombinant human Cav1.2; assay type: toxicity
[17] = Equilibrium solubility of the compound at pH 7.4; assay type: physicochemical; details: buffer
[18] = molecular target: T3, Kir3.1/Kir3.2 (Homo sapiens, UniProt P48051+P48549); test: Inhibition of GIRK1/2 (unknown origin) channel; assay type: protein-complex assay
T3 sequence (P48549 whole entry): T1 sequence (P48549 whole entry)
T3 sequence (P48051 whole entry): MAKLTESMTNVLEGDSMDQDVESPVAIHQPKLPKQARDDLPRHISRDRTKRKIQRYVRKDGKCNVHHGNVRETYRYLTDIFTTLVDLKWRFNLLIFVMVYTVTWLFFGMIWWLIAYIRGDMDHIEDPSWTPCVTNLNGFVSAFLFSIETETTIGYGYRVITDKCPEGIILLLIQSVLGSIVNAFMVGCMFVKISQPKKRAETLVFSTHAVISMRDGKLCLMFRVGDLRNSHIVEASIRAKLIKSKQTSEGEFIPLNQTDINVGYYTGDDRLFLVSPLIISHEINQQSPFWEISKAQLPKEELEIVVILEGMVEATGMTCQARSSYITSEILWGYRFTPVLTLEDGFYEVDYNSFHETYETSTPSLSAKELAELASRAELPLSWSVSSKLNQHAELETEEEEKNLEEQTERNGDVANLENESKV

[19] = Cmax in rat administered as single dose; assay type: ADME; details: in vivo
[20] = system: Cavia porcellus; test: Effect on AERP in guinea pig assessed as increase in AERP interval at 3 mg/kg, iv measured for 60 mins; assay type: functional, organism-based
[21] = molecular target: Sodium channel protein type 5 subunit alpha (Homo sapiens, UniProt Q14524); test: Inhibition of recombinant human Nav1.5; assay type: toxicity
[22] = Toxicity in rat assessed as NOAEL administered as single dose; details: in vivo
[23] = Toxicity in langendorff-perfused guinea pig heart assessed as effect on PR interval at 10 uM; assay type: tissue-based, Cavia porcellus
[24] = molecular target: Voltage-gated inwardly rectifying potassium channel KCNH2 (Homo sapiens, UniProt Q12809); test: Inhibition of recombinant hERG in the presence of dofetilide by competitive binding assay; assay type: toxicity
[25] = Toxicity in langendorff-perfused guinea pig heart assessed as effect on left ventricular action potential duration at 10 uM; assay type: tissue-based, Cavia porcellus
[26] = Toxicity in iv dosed rat assessed as neurobehavioral disturbances by measuring increase in motor activity; assay type: organism-based; details: in vivo
[27] = Toxicity in iv dosed rat assessed as neurobehavioral disturbances by measuring convulsions; assay type: organism-based; details: in vivo
[28] = molecular target: T3, Kir3.1/Kir3.2; test: Inhibition of recombinant human GIRK1/2 channel; assay type: protein-complex assay
[29] = Intrinsic clearance in rat liver microsomes; assay type: ADME, Microsome; details: read-out: CLH
[30] = Intrinsic clearance in human liver microsomes; assay type: ADME, Microsome; details: read-out: CLH

Sodium channel protein type 5 subunit alpha, sequence (Q14524 whole entry): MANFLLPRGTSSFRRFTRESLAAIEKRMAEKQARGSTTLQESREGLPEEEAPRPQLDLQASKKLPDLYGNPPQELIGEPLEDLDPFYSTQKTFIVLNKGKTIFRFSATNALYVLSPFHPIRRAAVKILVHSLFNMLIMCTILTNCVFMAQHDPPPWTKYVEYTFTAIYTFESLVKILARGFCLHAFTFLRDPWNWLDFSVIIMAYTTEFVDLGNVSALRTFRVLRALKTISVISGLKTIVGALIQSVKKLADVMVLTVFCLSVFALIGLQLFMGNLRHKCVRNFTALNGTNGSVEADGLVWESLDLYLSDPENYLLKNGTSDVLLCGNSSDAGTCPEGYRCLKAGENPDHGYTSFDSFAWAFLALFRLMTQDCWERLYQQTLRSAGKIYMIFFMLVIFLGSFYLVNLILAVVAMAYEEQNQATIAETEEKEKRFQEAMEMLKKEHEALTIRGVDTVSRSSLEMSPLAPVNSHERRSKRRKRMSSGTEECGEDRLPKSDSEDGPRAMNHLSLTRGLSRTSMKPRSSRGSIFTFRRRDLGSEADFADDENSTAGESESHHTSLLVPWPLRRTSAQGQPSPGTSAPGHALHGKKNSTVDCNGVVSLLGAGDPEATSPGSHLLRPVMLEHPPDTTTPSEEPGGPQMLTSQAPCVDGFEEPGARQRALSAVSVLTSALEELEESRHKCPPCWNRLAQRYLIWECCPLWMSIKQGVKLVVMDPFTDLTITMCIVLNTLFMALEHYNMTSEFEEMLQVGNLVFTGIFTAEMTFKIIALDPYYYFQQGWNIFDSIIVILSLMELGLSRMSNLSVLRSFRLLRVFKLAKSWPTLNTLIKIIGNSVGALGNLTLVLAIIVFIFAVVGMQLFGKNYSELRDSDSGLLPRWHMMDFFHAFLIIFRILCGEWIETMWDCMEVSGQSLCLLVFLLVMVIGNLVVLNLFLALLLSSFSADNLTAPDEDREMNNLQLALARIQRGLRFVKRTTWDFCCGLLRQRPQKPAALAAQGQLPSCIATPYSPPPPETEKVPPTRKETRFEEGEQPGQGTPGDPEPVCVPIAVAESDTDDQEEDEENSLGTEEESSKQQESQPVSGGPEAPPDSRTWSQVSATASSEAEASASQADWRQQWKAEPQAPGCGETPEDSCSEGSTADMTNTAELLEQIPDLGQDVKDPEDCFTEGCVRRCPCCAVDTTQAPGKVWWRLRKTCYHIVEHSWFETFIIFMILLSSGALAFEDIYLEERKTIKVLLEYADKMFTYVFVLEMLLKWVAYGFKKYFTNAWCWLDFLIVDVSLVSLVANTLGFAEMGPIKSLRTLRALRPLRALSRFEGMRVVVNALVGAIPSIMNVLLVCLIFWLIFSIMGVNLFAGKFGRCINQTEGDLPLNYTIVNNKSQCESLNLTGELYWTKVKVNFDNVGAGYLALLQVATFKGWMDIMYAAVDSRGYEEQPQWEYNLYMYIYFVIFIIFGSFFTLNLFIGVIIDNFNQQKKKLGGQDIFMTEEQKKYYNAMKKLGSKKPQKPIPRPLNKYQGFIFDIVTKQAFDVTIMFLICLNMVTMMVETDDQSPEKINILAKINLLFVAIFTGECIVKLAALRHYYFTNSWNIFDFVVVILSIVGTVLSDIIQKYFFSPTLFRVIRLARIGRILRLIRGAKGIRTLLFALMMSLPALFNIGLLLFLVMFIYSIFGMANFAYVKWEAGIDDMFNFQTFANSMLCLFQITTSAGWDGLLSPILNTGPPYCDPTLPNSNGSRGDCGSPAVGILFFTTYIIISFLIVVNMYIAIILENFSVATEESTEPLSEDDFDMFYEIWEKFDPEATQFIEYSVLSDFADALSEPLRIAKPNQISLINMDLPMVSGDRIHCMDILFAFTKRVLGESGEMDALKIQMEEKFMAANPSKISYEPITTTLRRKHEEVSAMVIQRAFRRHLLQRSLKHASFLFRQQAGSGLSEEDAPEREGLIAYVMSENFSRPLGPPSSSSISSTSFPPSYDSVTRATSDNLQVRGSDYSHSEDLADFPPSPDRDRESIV
Voltage-gated inwardly rectifying potassium channel KCNH2, sequence (Q12809 whole entry, the tested form may be a part): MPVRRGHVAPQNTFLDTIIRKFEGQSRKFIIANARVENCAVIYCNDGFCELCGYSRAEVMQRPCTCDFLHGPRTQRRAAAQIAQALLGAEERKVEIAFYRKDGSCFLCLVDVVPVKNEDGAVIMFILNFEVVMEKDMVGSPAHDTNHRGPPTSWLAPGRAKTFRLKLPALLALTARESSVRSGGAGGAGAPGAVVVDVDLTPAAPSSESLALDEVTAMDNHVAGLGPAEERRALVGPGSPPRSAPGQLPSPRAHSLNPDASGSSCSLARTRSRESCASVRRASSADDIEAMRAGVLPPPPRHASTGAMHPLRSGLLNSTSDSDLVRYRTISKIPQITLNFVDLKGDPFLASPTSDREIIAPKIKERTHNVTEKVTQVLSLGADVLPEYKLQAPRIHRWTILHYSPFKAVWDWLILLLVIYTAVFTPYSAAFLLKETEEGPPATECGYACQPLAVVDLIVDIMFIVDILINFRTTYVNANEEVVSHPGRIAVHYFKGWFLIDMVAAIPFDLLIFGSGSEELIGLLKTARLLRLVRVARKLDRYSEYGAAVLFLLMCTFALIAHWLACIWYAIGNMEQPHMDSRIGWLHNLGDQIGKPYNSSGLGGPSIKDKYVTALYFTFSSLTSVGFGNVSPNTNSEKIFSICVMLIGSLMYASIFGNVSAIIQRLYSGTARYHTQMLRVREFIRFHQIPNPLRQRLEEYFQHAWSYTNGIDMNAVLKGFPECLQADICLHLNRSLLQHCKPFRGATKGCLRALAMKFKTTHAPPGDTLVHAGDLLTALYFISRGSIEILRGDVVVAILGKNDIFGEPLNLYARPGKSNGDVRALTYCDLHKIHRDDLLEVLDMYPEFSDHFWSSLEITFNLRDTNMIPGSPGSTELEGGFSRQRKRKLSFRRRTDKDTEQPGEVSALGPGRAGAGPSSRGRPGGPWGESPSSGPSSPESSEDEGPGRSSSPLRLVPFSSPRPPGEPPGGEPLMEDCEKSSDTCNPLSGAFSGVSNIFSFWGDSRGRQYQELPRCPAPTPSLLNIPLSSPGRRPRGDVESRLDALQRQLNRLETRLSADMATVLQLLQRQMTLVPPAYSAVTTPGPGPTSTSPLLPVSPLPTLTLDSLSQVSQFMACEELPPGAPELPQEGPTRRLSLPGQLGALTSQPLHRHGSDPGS

Structure (SMILES)	solubility [1]	pIC50 [2]	Ratio [3]	Papp A→B [4]	pIC50 [15]	pIC50 [16]	pIC50 [21]	pIC50 [24]	also measured
O=c1cc(CO)n(-c2c(Cl)cccc2Cl)c2c(Cl)cnc(OCC(O)CO)c12 (configuration not stated)	700 µM (≈ 312 µg/mL)	7.10	12.1	7 ×10⁻⁶ cm/s	–	–	–	–	–
CS(=O)(=O)CCCOc1ncc(Cl)c2c1c(=O)cc(CO)n2-c1c(Cl)cccc1Cl	500 µM (≈ 246 µg/mL)	7.00	40.7	10.1 ×10⁻⁶ cm/s	–	–	–	–	–
Cc1cc(=O)c2c(F)cncc2n1-c1c(Cl)cc(C#CCN2CCOCC2)cc1Cl	240 µM (≈ 107 µg/mL)	6.66	1.1	20.4 ×10⁻⁶ cm/s	–	–	–	–	–
O=c1cc(CO)n(-c2c(Cl)cccc2Cl)c2c(Cl)cnc(OC[C@H](O)CO)c12	–	7.00	13.5	8.7 ×10⁻⁶ cm/s	< 4.30	< 4.30	< 4.30	< 4.30	Activity [5]: Non-Toxic; NOAEL at 144 h [6]: 75 mg/kg; Activity [7]: Non-Toxic; Activity [8]: Non-Toxic; half-life [9]: 1.3 h; Kp at 0.5 h [10]: 0.02; Cmax [11]: 193 µM; clearance [12]: 35 mL/min/kg; EC90 [13]: 1200 nM; Activity [14]: Active; solubility thermodynamic [17]: 1000 µM (≈ 446 µg/mL); pIC50 [18]: 7.00; Cmax [19]: 193 µM; Activity [20]: Active; NOAEL [22]: 75 mg/kg; Activity [23]: Non-Toxic; Activity [25]: Non-Toxic
COc1cc(Cl)c(-n2c(C)cc(=O)c3c(F)cncc32)c(Cl)c1	46 µM (≈ 16.2 µg/mL)	8.70	1.1	39.1 ×10⁻⁶ cm/s	–	–	–	–	–
O=c1cc(CO)n(-c2c(Cl)cccc2Cl)c2c(Cl)cnc(OC[C@@H](O)CO)c12	–	6.82	10.6	5 ×10⁻⁶ cm/s	< 4.30	< 4.30	< 4.30	< 4.30	–
Cc1cc(=O)c2c(F)cncc2n1-c1c(Cl)cc(C#CCO)cc1Cl	170 µM (≈ 64.1 µg/mL)	6.85	1.7	26.6 ×10⁻⁶ cm/s	–	–	–	–	–
Cc1cc(=O)c2c(OCC(O)CO)nc(N3CCOCC3)cc2n1-c1c(Cl)cccc1Cl (configuration not stated)	680 µM (≈ 327 µg/mL)	< 5.30	–	13.1 ×10⁻⁶ cm/s	–	–	–	–	–
Cc1cc(=O)c2c(F)cncc2n1-c1c(Cl)cc(C#N)cc1Cl	52 µM (≈ 18.1 µg/mL)	6.72	1.8	13.9 ×10⁻⁶ cm/s	< 4.30	< 4.30	< 4.30	< 4.52	Activity [26]: Toxic; Activity [27]: Toxic; pIC50 [28]: 6.70; microsomal CLint [29]: 18 µL/min/mg; microsomal CLint [30]: 12 µL/min/mg
